In US20240199555A1, “APPLICATIONS OF BIASED LIGANDS OF THE SEROTONIN 5-HT7 RECEPTOR FOR THE TREATMENT OF PAIN, MULTIPLE SCLEROSIS AND THE CONTROL OF THERMOREGULATION” (Centre National de la Recherche Scientifique, priority 2021, published 2024):
Where two headings read alike, the source gives them in different places.

What was measured:
[1] = biological target: human 5-HT7a receptor (Homo sapiens (Human), UniProt P34969); test: Radioligand binding competition, filtration binding assay, 5-HT7a; settings: affinity on 5-HT7 receptor, table of new compounds
Chain of human 5-HT7a receptor (P34969 other isoform, or with tags, fused parts or gaps): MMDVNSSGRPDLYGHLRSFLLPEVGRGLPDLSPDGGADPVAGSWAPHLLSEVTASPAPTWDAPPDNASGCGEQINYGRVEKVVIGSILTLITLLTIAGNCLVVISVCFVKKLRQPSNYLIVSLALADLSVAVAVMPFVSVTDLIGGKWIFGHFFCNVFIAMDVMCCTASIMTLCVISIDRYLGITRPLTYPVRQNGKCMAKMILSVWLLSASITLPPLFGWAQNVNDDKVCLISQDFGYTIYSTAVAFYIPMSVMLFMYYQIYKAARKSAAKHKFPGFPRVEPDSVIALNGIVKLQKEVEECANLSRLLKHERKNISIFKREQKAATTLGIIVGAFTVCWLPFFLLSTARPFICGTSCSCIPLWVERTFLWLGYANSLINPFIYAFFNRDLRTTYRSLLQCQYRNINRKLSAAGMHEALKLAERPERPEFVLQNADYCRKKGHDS
Experimental: (§1) FIG. 14: Testing of 8 molecules for radioligand binding competition activity on recombinant human 5-HT1A, 5-HT2A, 5-HT2Cedited, 5-HT6, 5-HT7 and D2(long) receptors using filtration binding assays.
(§2) Radioligand Binding experiments were conducted with Epics Therapeutics membrane preparations. Receptor accession numbers, cellular background and reference compounds are shown in this table.
Reference values thus obtained for the test were compared to historical values obtained from the same receptor and used to validate the experimental session. For replicate determinations, the maximum variability tolerated in the test was of +/−20% around the average of the replicates.
(§3) Dose-response data from test compounds were analyzed with XLfit (IDBS) software using nonlinear regression applied to a sigmoidal dose-response model and the following equation: • XL Fit fit Model 203: 4 Parameter Logistic Model • A: Bottom • B: TOP • C: LogEC50 • D: Hill

[2] = biological target: human 5-HT1A receptor (Homo sapiens (Human), UniProt P08908); test: Radioligand binding competition, 5-HT1A; settings: selectivity panel; for IC50: read-out: RLB 5-HT1A IC50; for Ki: read-out: RLB 5-HT1A Ki
Chain of human 5-HT1A receptor (P08908 whole entry): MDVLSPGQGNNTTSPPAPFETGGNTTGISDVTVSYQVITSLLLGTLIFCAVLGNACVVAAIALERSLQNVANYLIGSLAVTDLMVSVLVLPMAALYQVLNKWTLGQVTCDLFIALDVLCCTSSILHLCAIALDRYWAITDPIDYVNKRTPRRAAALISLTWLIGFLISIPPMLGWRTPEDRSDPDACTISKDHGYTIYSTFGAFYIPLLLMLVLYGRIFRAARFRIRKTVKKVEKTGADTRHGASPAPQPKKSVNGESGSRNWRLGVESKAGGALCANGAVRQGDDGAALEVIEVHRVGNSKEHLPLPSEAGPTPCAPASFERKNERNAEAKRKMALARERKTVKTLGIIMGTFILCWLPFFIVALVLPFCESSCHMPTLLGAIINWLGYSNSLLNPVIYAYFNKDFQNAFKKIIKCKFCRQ
Experimental: as §1, §2
(§4) The new compounds have been tested by radioligand binding competition activity at the human 5-HT1A (FAST-0500B), 5-HT2A (FAST-0505B), 5-HT2Cedited (FAST-0507B), 5-HT6 (FAST-0509B), 5-HT7a (FAST-05111B) and D2(long) (FAST-0101B) receptors at seven (7) concentrations, in duplicate. […] Reference values thus obtained for the test were compared to historical values obtained from the same receptor and used to validate the experimental session. For replicate determinations, the maximum variability tolerated in the test was of +/−20% around the average of the replicates.
as §3

[3] = biological target: human 5-HT2A receptor (Homo sapiens (Human), UniProt P28223); test: Radioligand binding competition, 5-HT2A; settings: selectivity panel; for IC50: read-out: RLB 5-HT2A IC50; for Ki: read-out: RLB 5-HT2A Ki
Chain of human 5-HT2A receptor (P28223 whole entry): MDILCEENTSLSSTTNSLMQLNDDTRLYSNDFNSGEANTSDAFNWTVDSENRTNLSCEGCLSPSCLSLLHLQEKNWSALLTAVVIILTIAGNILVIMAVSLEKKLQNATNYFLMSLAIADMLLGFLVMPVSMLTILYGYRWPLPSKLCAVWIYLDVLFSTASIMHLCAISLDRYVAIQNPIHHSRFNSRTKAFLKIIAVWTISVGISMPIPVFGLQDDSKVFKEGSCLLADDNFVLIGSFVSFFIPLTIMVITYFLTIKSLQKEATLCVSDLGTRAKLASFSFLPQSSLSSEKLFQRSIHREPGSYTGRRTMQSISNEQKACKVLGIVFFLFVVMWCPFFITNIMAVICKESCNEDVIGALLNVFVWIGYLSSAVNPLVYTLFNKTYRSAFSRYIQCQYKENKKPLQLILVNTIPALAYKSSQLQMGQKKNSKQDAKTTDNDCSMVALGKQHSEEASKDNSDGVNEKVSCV
Experimental: as §1, §2, §4, §3

[4] = biological target: human 5-HT2Cedited receptor (Homo sapiens, UniProt P28335); test: Radioligand binding competition, 5-HT2Cedited
Chain of human 5-HT2Cedited receptor (P28335 33-458 limits assumed): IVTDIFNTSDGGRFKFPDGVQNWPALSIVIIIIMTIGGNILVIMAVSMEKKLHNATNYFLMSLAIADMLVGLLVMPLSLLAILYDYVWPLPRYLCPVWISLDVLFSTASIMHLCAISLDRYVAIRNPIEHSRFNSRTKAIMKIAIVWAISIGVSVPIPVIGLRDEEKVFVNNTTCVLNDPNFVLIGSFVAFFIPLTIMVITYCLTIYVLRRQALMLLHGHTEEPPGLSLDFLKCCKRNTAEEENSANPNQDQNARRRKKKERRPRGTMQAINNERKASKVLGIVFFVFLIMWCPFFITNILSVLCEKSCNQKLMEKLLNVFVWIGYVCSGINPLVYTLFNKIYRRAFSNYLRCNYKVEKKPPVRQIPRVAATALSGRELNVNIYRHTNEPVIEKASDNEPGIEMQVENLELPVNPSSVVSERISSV
Experimental: as §1, §2, §4, §3

[5] = system: mice; test: Tail immersion test (50° C.); type: in vivo; settings: administrated alone, i.p.
Experimental: (A) Experimental protocol summary used. (B) Mice were subcutaneously injected with two different doses of the 5-HT7 receptor agonist Serodolin, 1 mg/kg or 5 mg/kg and 10 min later their tail extremity was immersed in water heated to 50 degrees. […] The effect of injections (Serodolin or E55888) was evaluated at TO, 30 min and 60 min corresponding to 10, 40 and 70 min after compound injections. […] Their tail extremity was immersed in water heated to 50 degrees at TO (E) or 30 min later (F) corresponding to 10 and 40 min after agonist injections. […] Statistical analysis was done using Tukey's multiple comparison test.
Tail immersion test. Nociception was assessed with the tail immersion test, 10 min and 40 min after E55888 (5 mg/kg) or Serodolin (5 mg/kg) tail subcutaneous injections, in the water heated to 50° C. Vehicle (20% DMSO, 5% Tween 80 diluted in PBS solution) was used as a control group. These different groups were intraperitoneally injected (+) or not (−) with the 5-HT7R antagonist SB269960 (5 mg/kg) 10 min before the ligand injection. The tail withdrawal latency (s) was measured for each animal.

Compound	IC50 [1]	Ki [1]	also measured
O=c1[nH]c2ccccc2n1CCCCCN1CCN(c2ccc(C(F)(F)F)cc2)CC1 [JLB017]	7.19 nM	5.05 nM	
O=c1[nH]c2ccccc2n1CCCCCN1CCN(c2ccccc2F)CC1 [JLB014]	3.29 nM	2.31 nM	
CC(C)(CCN1CCN(c2ccc(F)cc2)CC1)CCn1c(=O)[nH]c2ccccc21 [JLB094]	2.7 nM	1.9 nM	IC50 [2]: 167 nM; Ki [2]: 83.6 nM; IC50 [3]: 6.23 nM; Ki [3]: 1.02 nM; IC50 ([4]; selectivity panel; read-out: RLB 5-HT2Cedited IC50): 1100 nM; Ki ([4]; selectivity panel; read-out: RLB 5-HT2Cedited Ki): 181 nM
O=c1[nH]c2ccccc2n1CCCCCN1CCN(c2ccccn2)CC1 [JLB012]	1.69 nM	1.18 nM	IC50 [2]: 41.3 nM; Ki [2]: 20.7 nM; IC50 [3]: 44.2 nM; Ki [3]: 7.3 nM; IC50 ([4]; read-out: RLB 5-HT2Cedited IC50; selectivity panel): 5250 nM; Ki ([4]; read-out: RLB 5-HT2Cedited Ki; selectivity panel): 863 nM
O=c1[nH]c2ccccc2n1CCCCCN1CCN(c2ncccn2)CC1 [JLB013]	9.68 nM	6.8 nM	
CC1CCN(CC[C@H]2CCCN2S(=O)(=O)c2cccc(O)c2)CC1 [SB269970, reference compound]			acute thermal nociception, antagonist administrated alone [5]: did not exert any significant effect on acute thermal nociception
O=c1[nH]c2ccccc2n1CCOCCN1CCN(c2ccc(F)cc2)CC1 [JLB048]	19.1 nM	13.4 nM	
O=c1[nH]c2ccccc2n1CCCCCN1C[C@@H]2CN(c3ccc(F)cc3)C[C@@H]2C1 [JLB061]	5.97 nM	4.19 nM	
O=c1[nH]c2ccccc2n1CCCCCN1CCN(c2ccc(O)cc2)CC1 [MOA43]	1.95 nM	1.37 nM	
Cc1ccc(N2CC3(CN(CCCCCn4c(=O)[nH]c5ccccc54)C3)C2)cc1 [JLB137, 1-(5-(6-(p-tolyl)-2,6-diazaspiro[3.3]heptan-2-yl)pentyl)-1H-benzo[d]imidazol-2(3H)-one]	687 nM	482 nM	
O=c1[nH]c2ccccc2n1CCCCCN1CC2(C1)CN(c1ccccn1)C2 [JLB138, 1-(5-(6-(pyridin-2-yl)-2,6-diazaspiro[3.3]heptan-2-yl)pentyl)-1H-benzo[d]imidazol-2(3H)-one]	5070 nM	3560 nM	
O=c1[nH]ccn1CCCCCN1CCN(c2ccc(F)cc2)CC1 [JLB102, 1-(5-(4-(4-fluorophenyl)piperazin-1-yl)pentyl)-1H-imidazol-2(3H)-one]	17 nM	11.9 nM	

Continued by falling IC50 [1], values first:

IC50 [1]	Ki [1]	Compound	also measured
370 nM	260 nM	O=c1[nH]c2ccccc2n1CCCCCN1CCN(c2ncncn2)CC1 [JLB023]	
260 nM	182 nM	O=c1[nH]c2ccccc2n1CCCCCN1CCN(c2ccncc2)CC1 [JLB020]	
174 nM	122 nM	O=c1[nH]c2ccccc2n1CCCCCN1CC2(C1)CN(c1ccc(F)cc1)C2 [JLB088, 1-(5-(6-(4-fluorophenyl)-2,6-diazaspiro[3.3]heptan-2-yl)pentyl)-1H-benzo[d]imidazol-2(3H)-one]	
136 nM	95.5 nM	O=c1[nH]c2ccccc2n1CCCCCN1CCN(c2ccncn2)CC1 [JLB022]	
69.7 nM	48.9 nM	O=c1[nH]c2ccccc2n1CCCCCN1CCCN(c2ccccn2)CC1 [JLB118, 1-(5-(4-(pyridin-2-yl)-1,4-diazepan-1-yl)pentyl)-1H-benzo[d]imidazol-2(3H)-one]	
24.2 nM	17 nM	Cc1ccc(N2CCCN(CCCCCn3c(=O)[nH]c4ccccc43)CC2)cc1 [JLB119, 1-(5-(4-(p-tolyl)-1,4-diazepan-1-yl)pentyl)-1H-benzo[d]imidazol-2(3H)-one]	
7.99 nM	5.61 nM	O=c1[nH]c2ccccc2n1CCCCCN1CCN(c2ccccc2O)CC1 [JLB010]	
4.74 nM	3.33 nM	O=c1[nH]c2ccccc2n1CN1CCN(c2ccccc2C(F)(F)F)CC1 [JLB011]	
4.39 nM	3.09 nM	O=c1[nH]c2ccccc2n1CCCCCN1CCN(c2ccc(F)cc2)CC1 [JLB015]	
